According to patent US10078087B2, “Assays and enhancers of the human delta ENaC sodium channel” (SENOMYX, INC., priority 2001, dated 2018):

Assays:
[1] = target: T1, δβγ hENaC (Homo sapiens, UniProt P51168+P51170+P51172); assay: two-electrode voltage clamp of oocytes expressing delta beta gamma hENaC; format: cell-based
T1 construct: expressed in transfected cells; host or cells: Xenopus laevis oocytes injected with cRNA of each subunit
T1 sequence (P51172 1-638 isoform P51172-1): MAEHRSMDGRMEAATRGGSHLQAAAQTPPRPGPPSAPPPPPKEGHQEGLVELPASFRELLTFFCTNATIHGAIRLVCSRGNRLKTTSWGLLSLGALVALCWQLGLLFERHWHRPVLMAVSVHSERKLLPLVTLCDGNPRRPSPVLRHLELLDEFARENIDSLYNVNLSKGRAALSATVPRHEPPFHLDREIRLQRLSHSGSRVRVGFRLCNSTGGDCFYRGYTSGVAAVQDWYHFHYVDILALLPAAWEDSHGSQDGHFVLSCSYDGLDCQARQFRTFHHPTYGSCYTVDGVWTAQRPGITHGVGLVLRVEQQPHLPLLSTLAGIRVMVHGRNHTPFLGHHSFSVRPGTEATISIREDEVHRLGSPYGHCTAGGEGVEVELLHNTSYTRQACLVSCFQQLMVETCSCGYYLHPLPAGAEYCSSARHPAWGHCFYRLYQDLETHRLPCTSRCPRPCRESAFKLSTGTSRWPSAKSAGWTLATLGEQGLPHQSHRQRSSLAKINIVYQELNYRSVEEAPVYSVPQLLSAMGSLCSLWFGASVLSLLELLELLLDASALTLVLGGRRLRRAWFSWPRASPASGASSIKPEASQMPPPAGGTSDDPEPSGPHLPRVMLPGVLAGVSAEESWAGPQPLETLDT
T1 sequence (P51168 1-640): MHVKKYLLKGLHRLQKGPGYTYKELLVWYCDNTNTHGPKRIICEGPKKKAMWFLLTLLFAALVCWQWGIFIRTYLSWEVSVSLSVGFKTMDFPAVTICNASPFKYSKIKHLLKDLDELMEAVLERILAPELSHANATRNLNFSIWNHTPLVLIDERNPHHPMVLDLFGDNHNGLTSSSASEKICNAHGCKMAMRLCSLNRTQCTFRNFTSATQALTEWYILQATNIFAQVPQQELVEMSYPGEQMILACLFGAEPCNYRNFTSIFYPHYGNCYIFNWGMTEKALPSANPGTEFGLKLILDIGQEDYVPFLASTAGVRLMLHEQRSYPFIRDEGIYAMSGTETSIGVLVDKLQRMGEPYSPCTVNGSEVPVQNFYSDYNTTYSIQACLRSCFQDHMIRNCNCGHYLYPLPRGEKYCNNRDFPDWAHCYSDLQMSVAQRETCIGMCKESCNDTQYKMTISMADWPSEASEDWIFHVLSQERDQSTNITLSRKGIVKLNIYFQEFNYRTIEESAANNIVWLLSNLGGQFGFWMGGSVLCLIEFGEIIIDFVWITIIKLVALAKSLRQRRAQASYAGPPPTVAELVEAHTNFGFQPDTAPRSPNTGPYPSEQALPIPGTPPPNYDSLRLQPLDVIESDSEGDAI
T1 sequence (P51170 1-649): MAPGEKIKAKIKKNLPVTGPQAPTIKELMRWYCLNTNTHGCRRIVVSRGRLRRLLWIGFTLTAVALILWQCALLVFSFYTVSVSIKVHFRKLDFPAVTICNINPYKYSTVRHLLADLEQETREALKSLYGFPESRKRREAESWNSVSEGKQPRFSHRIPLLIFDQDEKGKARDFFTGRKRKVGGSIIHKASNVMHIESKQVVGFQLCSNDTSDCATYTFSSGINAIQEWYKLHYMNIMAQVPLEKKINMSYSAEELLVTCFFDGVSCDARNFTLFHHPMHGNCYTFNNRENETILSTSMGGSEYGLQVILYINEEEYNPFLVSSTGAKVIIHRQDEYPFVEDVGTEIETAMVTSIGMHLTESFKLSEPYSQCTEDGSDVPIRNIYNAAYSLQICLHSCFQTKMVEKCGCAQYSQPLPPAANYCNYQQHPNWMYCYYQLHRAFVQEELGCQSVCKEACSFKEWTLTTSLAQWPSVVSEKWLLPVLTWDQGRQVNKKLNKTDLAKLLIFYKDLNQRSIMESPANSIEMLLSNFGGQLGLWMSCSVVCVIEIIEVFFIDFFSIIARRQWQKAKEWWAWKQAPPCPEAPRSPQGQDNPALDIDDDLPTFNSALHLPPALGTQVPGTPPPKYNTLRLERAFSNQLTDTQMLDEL
Text: α, β, and γ hENaC were cloned from kidney cDNA (Origene, Rockville, Md.) into pcDNA3 (Invitrogen, Carlsbad, Calif.) as described previously (Kellenberger, S and Schild, L. Physiol. Rev. 82:735-767(2002). δ hENaC was cloned from testis cDNA (BD Biosciences Clontech, Palo Alto, Calif.). α hENaC sequence was identical to published sequences from lung and kidney (Rossier et al., Annu. Rev. Physiol. 64:877-897 (2002); Alvarez de la Rosa et al., Annu. Rev. Physiol. 62:573-594 (200). (Genbank accession numbers X76180 and L29007). β hENaC sequence was identical to published sequence from lung Bigiani et al. Bigiani et al., Prog. Biophys. Mol. Biol. 83:193-225 (2003). (Genbank accession number X87159) with the exception of a glycine (nucleotide triplet GGC) to alanine (nucleotide triplet GCC) substitution in our clone at amino acid 314. […] (GenBank accession number BC059391). δ hENaC sequence was identical to published sequence from kidney (Shimkets et al., Cell 79: 407414 (1994)) with the exception of a tyrosine (nucleotide triplet TAC) to cysteine (nucleotide triplet TGC) substitution in our clone at amino acid 532.
ENaC cRNA was generated from linearized plasmids using the mMESSAGE mMACHINE kit with T7 RNA polymerase according to the manufacturer's instructions (Ambion, Austin, Tex.). cRNA quality was checked by denaturing agarose gel electrophoresis and spectrophometric absorbance readings at 260 and 280 nm to ensure that full-length, non-degraded cRNA was generated.
Female Xenopus laevis South African clawed frogs greater than or equal to 9 cm in length were obtained from NASCO (Fort Atkinson, Wis.). Frogs were anesthetized in 0.15% ethyl-3-aminobenzoate methanesulfonate (Sigma, St. Louis, Mo.) in distilled water and placed on ice. […]
Unless noted otherwise, ENaC function was measured using the two-electrode voltage clamp technique on an OpusXpress 6000A parallel oocyte voltage clamp system twenty-four hours post-microinjection (Axon Instruments, Union City, Calif.). […]

[2] = target: T2, αβγ hENaC (Homo sapiens, UniProt P37088+P51168+P51170); assay: two-electrode voltage clamp of oocytes expressing alpha beta gamma hENaC; format: cell-based
T2 construct: expressed in transfected cells; host or cells: Xenopus laevis oocytes injected with cRNA of each subunit
T2 sequence (P37088 1-669): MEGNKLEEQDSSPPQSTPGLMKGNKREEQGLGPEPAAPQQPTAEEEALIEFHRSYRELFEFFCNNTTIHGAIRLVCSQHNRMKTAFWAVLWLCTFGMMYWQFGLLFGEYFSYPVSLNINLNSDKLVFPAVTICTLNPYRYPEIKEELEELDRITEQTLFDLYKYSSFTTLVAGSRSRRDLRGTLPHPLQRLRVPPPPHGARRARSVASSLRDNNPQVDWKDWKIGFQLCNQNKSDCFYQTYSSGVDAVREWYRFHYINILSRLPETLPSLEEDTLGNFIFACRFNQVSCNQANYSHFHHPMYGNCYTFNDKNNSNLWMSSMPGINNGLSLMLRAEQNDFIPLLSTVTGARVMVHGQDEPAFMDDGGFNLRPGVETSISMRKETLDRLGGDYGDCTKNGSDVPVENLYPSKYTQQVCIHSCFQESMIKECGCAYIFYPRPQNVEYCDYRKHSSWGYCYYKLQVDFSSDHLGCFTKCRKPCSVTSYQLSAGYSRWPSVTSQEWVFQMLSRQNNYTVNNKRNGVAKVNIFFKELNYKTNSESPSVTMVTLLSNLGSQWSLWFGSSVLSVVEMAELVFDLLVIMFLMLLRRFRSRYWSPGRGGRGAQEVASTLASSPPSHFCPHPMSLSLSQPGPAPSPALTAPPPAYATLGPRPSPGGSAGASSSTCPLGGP
T2 sequence (P51168 1-640): T1 sequence (P51168 1-640)
T2 sequence (P51170 1-649): T1 sequence (P51170 1-649)
Text: α, β, and γ hENaC were cloned from kidney cDNA (Origene, Rockville, Md.) into pcDNA3 (Invitrogen, Carlsbad, Calif.) as described previously (Kellenberger, S and Schild, L. Physiol. Rev. 82:735-767(2002). δ hENaC was cloned from testis cDNA (BD Biosciences Clontech, Palo Alto, Calif.). α hENaC sequence was identical to published sequences from lung and kidney (Rossier et al., Annu. Rev. Physiol. 64:877-897 (2002); Alvarez de la Rosa et al., Annu. Rev. Physiol. 62:573-594 (200). (Genbank accession numbers X76180 and L29007). β hENaC sequence was identical to published sequence from lung Bigiani et al. Bigiani et al., Prog. […] (Genbank accession number X87159) with the exception of a glycine (nucleotide triplet GGC) to alanine (nucleotide triplet GCC) substitution in our clone at amino acid 314. […]
ENaC cRNA was generated from linearized plasmids using the mMESSAGE mMACHINE kit with T7 RNA polymerase according to the manufacturer's instructions (Ambion, Austin, Tex.). cRNA quality was checked by denaturing agarose gel electrophoresis and spectrophometric absorbance readings at 260 and 280 nm to ensure that full-length, non-degraded cRNA was generated. […]

[3] = test system: human salty taste perception; details: humans; concentrations that specifically modulate ENaC function; cited from earlier work
[4] = test system: human salty taste perception; assay: effect of amiloride on human salty taste perception; format: in vivo; details: humans; levels ~300-fold above IC50 for αβγ ENaC (~10-fold over IC50 for δβγ ENaC) in oocytes
[5] = compound concentration not given, N = 5-7 oocytes

## N=C(N)NC(=O)c1nc(Cl)c(N)nc1N [amiloride]
[1]
  inhibition at 10 µM: > 90%
[1]; Xenopus oocytes, n=10, mean±SEM
  IC50: 2700 ± 300 nM
[2]
  inhibition at 1 µM: > 90%
[3]
  reduction of intensity of sodium chloride taste: 15-20%
[4]
  effect on perceived salt intensity: did not elicit a significant effect

## Choline C1
[1]; [5]
  % Enhance δβγ: 52 +/− 5%
[2]; [5]
  % Enhance αβγ: 53 +/− 17%
